{"source": "patent US10597388B2", "about": "“Pyridazinone herbicides” (FMC CORPORATION, priority 2014, dated 2020)", "test_in_all_cases": "Test D controlled growth environment herbicide test, pre- and postemergence", "type_in_all_cases": "in vivo", "key": {"[1]": {"system": "barley, winter (winter barley, Hordeum vulgare)", "procedure,_shortened": "(§1)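 Rating is visual, 0–100 scale (100 = complete control), made against untreated plants 14–21 d after treatment in controlled growth conditions. Postemergence sprays went onto 1- to 4-leaf plants in peat medium; preemergence sprays onto silt loam after sowing; formulation included a surfactant.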"}, "[2]": {"system": "blackgrass (Alopecurus myosuroides)", "procedure,_shortened": "as §1"}, "[3]": {"system": "bromegrass, downy (downy bromegrass, Bromus tectorum)", "procedure,_shortened": "as §1"}, "[4]": {"system": "buckwheat, wild (wild buckwheat, Polygonum convolvulus)", "procedure,_shortened": "as §1"}, "[5]": {"system": "canarygrass (Phalaris minor)", "procedure,_shortened": "as §1"}, "[6]": {"system": "chamomile (scentless chamomile, Matricaria inodora)", "procedure,_shortened": "as §1"}, "[7]": {"system": "chickweed (common chickweed, Stellaria media)", "procedure,_shortened": "as §1"}, "[8]": {"system": "field poppy (Papaver rhoeas)", "procedure,_shortened": "as §1"}, "[9]": {"system": "galium (catchweed bedstraw, Galium aparine)", "procedure,_shortened": "as §1"}, "[10]": {"system": "lambsquarters (Chenopodium album)", "procedure,_shortened": "as §1"}, "[11]": {"system": "oilseed rape (Brassica napus)", "procedure,_shortened": "as §1"}, "[12]": {"system": "ryegrass, Italian (Italian ryegrass, Lolium multiflorum)", "procedure,_shortened": "as §1"}, "[13]": {"system": "speedwell (bird's-eye speedwell, Veronica persica)", "procedure,_shortened": "as §1"}, "[14]": {"conditions": "Postemergence, 31 g ai/ha, scale 0 to 100 (0 no effect, 100 complete control)"}, "[15]": {"conditions": "Postemergence, 125 g ai/ha, visual rating on scale 0 (no effect) to 100 (complete control), 14 to 21 d"}, "[16]": {"conditions": "Postemergence, 250 g ai/ha, scale 0 to 100 (0 no effect, 100 complete control)"}, "[17]": {"conditions": "Preemergence, 62 g ai/ha, scale 0 to 100 (0 no effect, 100 complete control)"}, "[18]": {"conditions": "Preemergence, 125 g ai/ha, scale 0 to 100 (0 no effect, 100 complete control)"}, "[19]": {"conditions": "Preemergence, 250 g ai/ha, scale 0 to 100 (0 no effect, 100 complete control)"}, "[20]": {"conditions": "postemergence, 62 g ai/ha, scale 0 to 100, 0 no effect, 100 complete control"}}, "data": [{"compound": "Cc1ccc2sc(C)c(-c3c(O)c(C)nn(C)c3=O)c2c1", "note": "[Compound 1, 4-(2,5-dimethylbenzo[b]thien-3-yl)-5-hydroxy-2,6-dimethyl-3(2H)-pyridazinone]", "values": [{"measurement": "Plant response rating, Barley, Winter", "setting": "[1]; [14]", "result": 5}, {"measurement": "Plant response rating, Barley, Winter", "setting": "[1]; [15]", "result": 5}, {"measurement": "Plant response rating, Barley, Winter", "setting": "[1]; [16]", "result": 10}, {"measurement": "Plant response rating (scale of 0 to 100), Barley, Winter", "setting": "[1]; Preemergence, 31 g ai/ha", "result": 0}, {"measurement": "Plant response rating, Barley, Winter", "setting": "[1]; [17]", "result": 0}, {"measurement": "Plant response rating, Barley, Winter", "setting": "[1]; [18]", "result": 0}, {"measurement": "Barley, Winter plant response rating", "setting": "[1]; [19]", "result": 0}, {"measurement": "Plant response rating, Barley, Winter", "setting": "[1]; [20]", "result": 5}, {"measurement": "Blackgrass plant response rating", "setting": "[2]; [14]", "result": 40}, {"measurement": "Plant response rating, Blackgrass", "setting": "[2]; [15]", "result": 70}, {"measurement": "Plant response rating, Blackgrass", "setting": "[2]; [16]", "result": 80}, {"measurement": "Plant response rating (scale of 0 to 100), Blackgrass", "setting": "[2]; Preemergence, 31 g ai/ha", "result": 35}, {"measurement": "Plant response rating, Blackgrass", "setting": "[2]; [17]", "result": 70}, {"measurement": "Plant response rating, Blackgrass", "setting": "[2]; [18]", "result": 85}, {"measurement": "Blackgrass plant response rating", "setting": "[2]; [19]", "result": 90}, {"measurement": "Plant response rating, Blackgrass", "setting": "[2]; [20]", "result": 50}, {"measurement": "Bromegrass, Downy plant response rating", "setting": "[3]; [14]", "result": 0}, {"measurement": "Plant response rating, Bromegrass, Downy", "setting": "[3]; [15]", "result": 10}, {"measurement": "Plant response rating, Bromegrass, Downy", "setting": "[3]; [16]", "result": 20}, {"measurement": "Plant response rating (scale of 0 to 100), Bromegrass, Downy", "setting": "[3]; Preemergence, 31 g ai/ha", "result": 20}, {"measurement": "Plant response rating, Bromegrass, Downy", "setting": "[3]; [17]", "result": 25}, {"measurement": "Plant response rating, Bromegrass, Downy", "setting": "[3]; [18]", "result": 70}, {"measurement": "Plant response rating, Bromegrass, Downy", "setting": "[3]; [19]", "result": 70}, {"measurement": "Plant response rating, Bromegrass, Downy", "setting": "[3]; [20]", "result": 10}, {"measurement": "Buckwheat, Wild plant response rating", "setting": "[4]; [14]", "result": 70}, {"measurement": "Plant response rating, Buckwheat, Wild", "setting": "[4]; [15]", "result": 100}, {"measurement": "Plant response rating, Buckwheat, Wild", "setting": "[4]; [16]", "result": 100}, {"measurement": "Plant response rating (scale of 0 to 100), Buckwheat, Wild", "setting": "[4]; Preemergence, 31 g ai/ha", "result": 5}, {"measurement": "Plant response rating, Buckwheat, Wild", "setting": "[4]; [17]", "result": 10}, {"measurement": "Plant response rating, Buckwheat, Wild", "setting": "[4]; [18]", "result": 65}, {"measurement": "Plant response rating, Buckwheat, Wild", "setting": "[4]; [19]", "result": 100}, {"measurement": "Plant response rating, Buckwheat, Wild", "setting": "[4]; [20]", "result": 75}, {"measurement": "Canarygrass plant response rating", "setting": "[5]; [14]", "result": 20}, {"measurement": "Plant response rating, Canarygrass", "setting": "[5]; [15]", "result": 50}, {"measurement": "Plant response rating, Canarygrass", "setting": "[5]; [16]", "result": 70}, {"measurement": "Plant response rating (scale of 0 to 100), Canarygrass", "setting": "[5]; Preemergence, 31 g ai/ha", "result": 40}, {"measurement": "Plant response rating, Canarygrass", "setting": "[5]; [17]", "result": 60}, {"measurement": "Plant response rating, Canarygrass", "setting": "[5]; [18]", "result": 85}, {"measurement": "Plant response rating, Canarygrass", "setting": "[5]; [19]", "result": 90}, {"measurement": "Plant response rating, Canarygrass", "setting": "[5]; [20]", "result": 35}, {"measurement": "Chamomile plant response rating", "setting": "[6]; [14]", "result": 65}, {"measurement": "Plant response rating, Chamomile", "setting": "[6]; [15]", "result": 85}, {"measurement": "Plant response rating, Chamomile", "setting": "[6]; [16]", "result": 100}, {"measurement": "Plant response rating (scale of 0 to 100), Chamomile", "setting": "[6]; Preemergence, 31 g ai/ha", "result": 95}, {"measurement": "Plant response rating, Chamomile", "setting": "[6]; [17]", "result": 95}, {"measurement": "Plant response rating, Chamomile", "setting": "[6]; [18]", "result": 95}, {"measurement": "Plant response rating, Chamomile", "setting": "[6]; [19]", "result": 90}, {"measurement": "Plant response rating, Chamomile", "setting": "[6]; [20]", "result": 75}, {"measurement": "Chickweed plant response rating", "setting": "[7]; [14]", "result": 80}, {"measurement": "Plant response rating, Chickweed", "setting": "[7]; [15]", "result": 90}, {"measurement": "Plant response rating, Chickweed", "setting": "[7]; [16]", "result": 100}, {"measurement": "Plant response rating (scale of 0 to 100), Chickweed", "setting": "[7]; Preemergence, 31 g ai/ha", "result": 100}, {"measurement": "Plant response rating, Chickweed", "setting": "[7]; [17]", "result": 90}, {"measurement": "Plant response rating, Chickweed", "setting": "[7]; [18]", "result": 100}, {"measurement": "Plant response rating, Chickweed", "setting": "[7]; [19]", "result": 100}, {"measurement": "Plant response rating, Chickweed", "setting": "[7]; [20]", "result": 80}, {"measurement": "Field Poppy plant response rating", "setting": "[8]; [14]", "result": 95}, {"measurement": "Plant response rating, Field Poppy", "setting": "[8]; [15]", "result": 100}, {"measurement": "Plant response rating, Field Poppy", "setting": "[8]; [16]", "result": 95}, {"measurement": "Plant response rating (scale of 0 to 100), Field Poppy", "setting": "[8]; Preemergence, 31 g ai/ha", "result": 95}, {"measurement": "Plant response rating, Field Poppy", "setting": "[8]; [17]", "result": 95}, {"measurement": "Plant response rating, Field Poppy", "setting": "[8]; [18]", "result": 95}, {"measurement": "Plant response rating, Field Poppy", "setting": "[8]; [19]", "result": 95}, {"measurement": "Plant response rating, Field Poppy", "setting": "[8]; [20]", "result": 95}, {"measurement": "Galium plant response rating", "setting": "[9]; [14]", "result": 80}, {"measurement": "Plant response rating, Galium", "setting": "[9]; [15]", "result": 95}, {"measurement": "Plant response rating, Galium", "setting": "[9]; [16]", "result": 100}, {"measurement": "Plant response rating (scale of 0 to 100), Galium", "setting": "[9]; Preemergence, 31 g ai/ha", "result": 75}, {"measurement": "Plant response rating, Galium", "setting": "[9]; [17]", "result": 95}, {"measurement": "Plant response rating, Galium", "setting": "[9]; [18]", "result": 100}, {"measurement": "Plant response rating, Galium", "setting": "[9]; [19]", "result": 100}, {"measurement": "Plant response rating, Galium", "setting": "[9]; [20]", "result": 90}, {"measurement": "Lambsquarters plant response rating", "setting": "[10]; [14]", "result": 75}, {"measurement": "Plant response rating, Lambsquarters", "setting": "[10]; [15]", "result": 90}, {"measurement": "Plant response rating, Lambsquarters", "setting": "[10]; [16]", "result": 100}, {"measurement": "Plant response rating (scale of 0 to 100), Lambsquarters", "setting": "[10]; Preemergence, 31 g ai/ha", "result": 20}, {"measurement": "Plant response rating, Lambsquarters", "setting": "[10]; [17]", "result": 100}, {"measurement": "Plant response rating, Lambsquarters", "setting": "[10]; [18]", "result": 100}, {"measurement": "Plant response rating, Lambsquarters", "setting": "[10]; [19]", "result": 100}, {"measurement": "Plant response rating, Lambsquarters", "setting": "[10]; [20]", "result": 90}, {"measurement": "Oilseed Rape plant response rating", "setting": "[11]; [14]", "result": 0}, {"measurement": "Plant response rating, Oilseed Rape", "setting": "[11]; [15]", "result": 35}, {"measurement": "Plant response rating, Oilseed Rape", "setting": "[11]; [16]", "result": 60}, {"measurement": "Plant response rating (scale of 0 to 100), Oilseed Rape", "setting": "[11]; Preemergence, 31 g ai/ha", "result": 0}, {"measurement": "Plant response rating, Oilseed Rape", "setting": "[11]; [17]", "result": 0}, {"measurement": "Plant response rating, Oilseed Rape", "setting": "[11]; [18]", "result": 5}, {"measurement": "Plant response rating, Oilseed Rape", "setting": "[11]; [19]", "result": 20}, {"measurement": "Plant response rating, Oilseed Rape", "setting": "[11]; [20]", "result": 15}, {"measurement": "Ryegrass, Italian plant response rating", "setting": "[12]; [14]", "result": 65}, {"measurement": "Plant response rating, Ryegrass, Italian", "setting": "[12]; [15]", "result": 85}, {"measurement": "Plant response rating, Ryegrass, Italian", "setting": "[12]; [16]", "result": 85}, {"measurement": "Plant response rating (scale of 0 to 100), Ryegrass, Italian", "setting": "[12]; Preemergence, 31 g ai/ha", "result": 100}, {"measurement": "Plant response rating, Ryegrass, Italian", "setting": "[12]; [17]", "result": 100}, {"measurement": "Plant response rating, Ryegrass, Italian", "setting": "[12]; [18]", "result": 100}, {"measurement": "Plant response rating, Ryegrass, Italian", "setting": "[12]; [19]", "result": 100}, {"measurement": "Plant response rating, Ryegrass, Italian", "setting": "[12]; [20]", "result": 75}, {"measurement": "Speedwell plant response rating", "setting": "[13]; [14]", "result": 25}, {"measurement": "Plant response rating, Speedwell", "setting": "[13]; [15]", "result": 60}, {"measurement": "Plant response rating, Speedwell", "setting": "[13]; [16]", "result": 70}, {"measurement": "Plant response rating (scale of 0 to 100), Speedwell", "setting": "[13]; Preemergence, 31 g ai/ha", "result": 70}, {"measurement": "Plant response rating, Speedwell", "setting": "[13]; [17]", "result": 50}, {"measurement": "Plant response rating, Speedwell", "setting": "[13]; [19]", "result": 95}, {"measurement": "Plant response rating, Speedwell", "setting": "[13]; [20]", "result": 55}]}]}
